In ChEMBL document CHEMBL1158713, “Anthecotulide: purification, analytical data, absence from chamomile preparations, stability and reactivity, and anti-infective testing” (J Nat Prod, 2005):
Calls of active or inactive are those of the source.

Columns and labels:
Format in all cases: functional, organism-based
[1] = tested on: Escherichia coli; assay: Antimicrobial activity against Escherichia coli at < 10 ug/ml
[2] = tested on: Pseudomonas aeruginosa; assay: Antimicrobial activity against Pseudomonas aeruginosa at < 10 ug/ml
[3] = tested on: Enterococcus faecalis; assay: Antimicrobial activity against Enterococcus faecalis at < 10 ug/ml
[4] = tested on: Staphylococcus aureus; assay: Antimicrobial activity against Staphylococcus aureus at < 10 ug/ml
[5] = tested on: Enterococcus faecium; assay: Antimicrobial activity against vancomycin-resistant Enterococcus faecium at < 10 ug/ml
[6] = tested on: Staphylococcus aureus; assay: Antimicrobial activity against methicillin-resistant Staphylococcus aureus at < 10 ug/ml

Measured: Activity

C=C1C(=O)OCC1C/C=C(\C)CC(=O)C=C(C)C (stereo unspecified)
inactive: all assays above
